Consider 23 compounds from US9643964B2, “3-(2-aminopyrimidin-4-yl)-5-(3-hydroxypropynyl)-1H-pyrrolo[2,3-C]pyridine derivatives as NIK inhibitors for the treatment of cancer” (Janssen Pharmaceutica NV, priority 2013, dated 2017).

The target in test [1] is T1, Recombinant Human NF-kappaB-Inducing Kinase (NIK/MAP3K14) (Homo sapiens, UniProt Q99558). The experiment in a line: Biological Assay A: inhibition of recombinant human NIK/MAP3K14 activity (MBP phosphorylation, Mesoscale). It is filed as biochemical. The conditions noted are these: averaged over all measurements on all batches; read-out: Biochemical (MSD MBP) IC50. A digest of the protocol: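 10 nM NIK with 25 μM ATP on MBP-coated plates in Tris pH 7.5 buffer with MgCl2, DTT and Na3VO4 and 1% DMSO, for 1 h at 25° C. Phospho-MBP was detected by anti-phospho-MBP and Sulfotag electrochemiluminescence; after blank subtraction, IC50 came from a sigmoidal fit of % inhibition.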
T1 sequence (Q99558 whole entry): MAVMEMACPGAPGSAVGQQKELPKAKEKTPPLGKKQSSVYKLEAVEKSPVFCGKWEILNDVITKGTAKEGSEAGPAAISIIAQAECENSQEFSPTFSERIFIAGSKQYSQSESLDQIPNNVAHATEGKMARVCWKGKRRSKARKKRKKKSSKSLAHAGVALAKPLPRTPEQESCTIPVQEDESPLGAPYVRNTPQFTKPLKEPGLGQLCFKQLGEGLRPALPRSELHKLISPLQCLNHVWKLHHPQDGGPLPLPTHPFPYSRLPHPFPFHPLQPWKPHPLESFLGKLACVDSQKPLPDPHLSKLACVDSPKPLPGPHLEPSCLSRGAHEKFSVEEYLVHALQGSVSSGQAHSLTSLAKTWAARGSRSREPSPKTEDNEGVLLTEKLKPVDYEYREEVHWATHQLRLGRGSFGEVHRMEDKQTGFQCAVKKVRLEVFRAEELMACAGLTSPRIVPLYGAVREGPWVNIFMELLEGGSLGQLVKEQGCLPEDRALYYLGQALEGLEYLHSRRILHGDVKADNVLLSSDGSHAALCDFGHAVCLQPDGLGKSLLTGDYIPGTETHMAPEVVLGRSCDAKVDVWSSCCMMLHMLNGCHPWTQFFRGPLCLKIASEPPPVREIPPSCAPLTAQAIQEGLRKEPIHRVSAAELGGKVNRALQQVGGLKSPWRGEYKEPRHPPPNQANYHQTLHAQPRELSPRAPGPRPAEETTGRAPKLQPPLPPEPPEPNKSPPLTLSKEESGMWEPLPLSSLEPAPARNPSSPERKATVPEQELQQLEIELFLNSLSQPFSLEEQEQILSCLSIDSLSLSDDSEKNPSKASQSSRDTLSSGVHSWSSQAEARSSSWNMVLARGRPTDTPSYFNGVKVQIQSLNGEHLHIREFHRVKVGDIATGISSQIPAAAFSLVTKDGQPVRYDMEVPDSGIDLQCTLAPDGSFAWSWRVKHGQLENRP

The target in test [2] is T1, Recombinant Human NF-kappaB-Inducing Kinase (NIK/MAP3K14). The experiment in a line: Biological Assay A2: inhibition of auto-phosphorylation of recombinant human NIK/MAP3K14 (AlphaScreen). It is filed as biochemical. The conditions noted are these: auto-phosphorylation; averaged over all measurements on all batches; read-out: αscreen IC50. A digest of the protocol:
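GST-tagged NIK/MAP3K14 (0.2 nM) auto-phosphorylation with 25 microM ATP in 50 mM Tris pH 7.5, 5 mM MgCl2, 1% DMSO; 1 h at 25° C. Phospho-IKK Ser176/180 detected by AlphaScreen; blank-subtracted % inhibition fitted sigmoidally vs log concentration for IC50.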
For orientation: Alpha assays give light when donor and acceptor beads are brought close together.

In test [3] the test system is P-IKKα levels in L363 cells. The experiment in a line: Biological Assay B: effect of compounds on P-IKKα levels in L363 cells. It is filed as cell-based. The conditions noted are these: Homo sapiens, L-363, averaged values, read-out: IKKα Cellular IC50. The procedure, abridged:
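L363 cells pre-incubated 24 h with 1 μg/ml stock BAFF, then treated 2 h with compounds (8-point, 1:3 dilutions, 1% DMSO) at 37° C; P-IKKα in lysates measured by sandwich immunoassay. Blank (10 μM ADS125117) subtracted; IC50 from sigmoidal fit of % inhibition of MG132/BAFF control.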

The subject of test [4] is LP-1 cells. The experiment in a line: Biological Assay C: antiproliferative activity on LP-1 cells (CellTiter-Glo). It counts as cell-based, human. To be noted: Homo sapiens, LP-1, 72 h, 72 hr treatment; averaged values. The procedure, abridged:
(§1)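 CellTiter-Glo luminescence after 72 h exposure, blank (cells read at compound addition) subtracted, growth expressed as % of untreated control; duplicate wells. Suspension cells in RPMI/10% FCS, 2,000–6,000 cells/well, 0.3% DMSO.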
(In general: Cellular ATP, detected with luciferase, serves as a proxy for viable cell number.)

Test [5] has as its system L-363 cells. The experiment in a line: Biological Assay C: antiproliferative activity on L-363 cells (CellTiter-Glo). It counts as cell-based, human. To be noted: Homo sapiens, L-363, 72 h, 72 hr treatment; averaged values. The procedure, abridged:
as §1

Test [6] relates to JJN-3 cells. The experiment in a line: Biological Assay C: antiproliferative activity on JJN-3 cells (CellTiter-Glo). It counts as cell-based, human. The conditions noted are these: Homo sapiens, JJN-3, 72 h, 72 hr treatment; averaged values. The procedure, abridged: as §1

Consider `COCCCn1cc(-c2ccnc(N)n2)c2cc(C#CC(C)(C)O)ncc21` [Compound 44], for which the figures for the IC50 in test [1], in test [2] and in test [3] were 0.025 µM, 0.021 µM and 0.036 µM, respectively. Further, the figures for the half-maximal effective concentration (EC50) in test [4], in test [5] and in test [6] were 1.7 µM, 0.4 µM and 0.25 µM, respectively.
For `CC(C)(O)C#Cc1cc2c(-c3nc(N)ncc3F)c[nH]c2cn1` [Compound 45], the figures for the 50% inhibitory concentration (IC50) in test [1], in test [2] and in test [3] were 0.0039 µM, 0.002 µM and 0.012 µM, respectively. Also, the EC50 (commonly the midpoint of the concentration-response curve) in test [4] worked out at 0.59 µM; in test [5], 0.09 µM; in test [6], 0.022 µM.
`Cc1c(-c2ccnc(N)n2)c2cc(C#CC(C)(C)O)ncc2n1CC(C)(C)O` [Compound 46]: the half-inhibitory concentration (IC50) (in general, the midpoint of a concentration-inhibition curve) came out at 0.06 µM in test [1], 0.055 µM in test [2] and 0.18 µM in test [3]. The EC50 in test [4] was over 10 µM; in test [5], 3.6 µM; in test [6] it was 1.1 µM.
For `CCNc1nccc(-c2c[nH]c3cnc(C#CC(C)(C)O)cc23)n1` [Compound 48], the IC50 in test [1] was determined as 0.065 µM; in test [2] it was 0.016 µM; in test [3], 0.26 µM. The values for the EC50 in test [4], in test [5] and in test [6] were 3.9 µM, 0.65 µM and 0.38 µM, respectively.
With `CNC(=O)CCn1cc(-c2ccnc(N)n2)c2cc(C#CC(C)(C)O)ncc21` [Compound 49], the IC50 in test [1] is 0.15 µM; in test [2], 0.36 µM; in test [3], 5.9 µM. In addition, the EC50 is over 10 µM in test [4], over 10 µM in test [5] and 32 µM in test [6].
Regarding `CN(C)C(=O)CCn1cc(-c2ccnc(N)n2)c2cc(C#CC(C)(C)O)ncc21` [Compound 50], the 50% inhibitory concentration (IC50) in test [1] was found to be 0.14 µM; in test [2], 0.23 µM; in test [3] it was 0.65 µM. Also, the EC50 in test [4] was over 10 µM; in test [5], 7.5 µM; in test [6] it was 2.7 µM.
With `CC(C)(O)C#Cc1cc2c(-c3ccnc(N)n3)cn(CCC(C)(C)O)c2cn1` [Compound 51], the IC50 in test [1] was 0.048 µM; in test [2], 0.023 µM; in test [3] it was 0.083 µM. The EC50 was over 10 µM in test [4], 2.4 µM in test [5] and 0.99 µM in test [6].
For the compound `COCCNC(=O)c1[nH]c2cnc(C#CC(C)(C)O)cc2c1-c1ccnc(N)n1` [Compound 52], the IC50 in test [1] was found to be 0.029 µM; in test [2], 0.033 µM; in test [3], 0.099 µM. Also, the EC50 in test [4] was found to be 30 µM; in test [5], 3.2 µM; in test [6], 1.2 µM.
Consider `CC(C)(O)Cn1cc(-c2ccnc(N)n2)c2cc(C#CC(C)(O)CC3CC3)ncc21` (stereo not drawn) [Compound 53], for which the IC50 stood at 0.045 µM in test [1], 0.057 µM in test [2] and 0.37 µM in test [3]. The EC50 in test [4] is over 10 µM; in test [5], over 10 µM; in test [6], 0.45 µM.
For `COCCn1cc(-c2nc(N)ncc2F)c2cc(C#CC(C)(C)O)ncc21` [Compound 54], the IC50 in test [1] amounted to 0.027 µM; in test [2], 0.017 µM; in test [3] it was 0.021 µM. Moreover, the EC50 in test [4] was 0.33 µM; in test [5], 0.059 µM; in test [6], 0.089 µM.
Consider `CC(C)(O)C#Cc1cc2c(-c3ccnc(N)n3)cn(CC3CCOCC3)c2cn1` [Compound 55], for which the figures for the half-maximal inhibitory concentration (IC50) in test [1], in test [2] and in test [3] were 0.084 µM, 0.18 µM and 0.14 µM, respectively. Moreover, the EC50 was 11 µM in test [4], 0.98 µM in test [5] and 0.38 µM in test [6].
With `CC(C)(O)C#Cc1cc2c(-c3ccnc(N)n3)cn(CC#N)c2cn1` [Compound 56], the IC50 in test [1] was 0.025 µM; in test [2] it was 0.018 µM; in test [3] it was 0.14 µM. The EC50 in test [4] worked out at 14 µM; in test [5], 0.84 µM; in test [6], 0.84 µM.
Take `CC(C)(O)C#Cc1cc2c(-c3ccnc(N)n3)cn(CCC#N)c2cn1` [Compound 57]: the results for the IC50 in test [1], in test [2] and in test [3] were 0.017 µM, 0.023 µM and 0.18 µM, respectively. In addition, the figures for the EC50 in test [4], in test [5] and in test [6] were 31 µM, 0.91 µM and 1.3 µM, respectively.
In the case of `CNc1ncc(Cl)c(-c2cn(CC(C)(C)O)c3cnc(C#CC(C)(C)O)cc23)n1` [Compound 58], the IC50 in test [1] is 0.43 µM; in test [2], 0.7 µM; in test [3], 0.11 µM. The EC50 in test [4] was found to be 2 µM; in test [5], 0.5 µM; in test [6], 0.55 µM.
With `CC(C)(O)Cn1cc(-c2ccnc(N)n2)c2cc(C#CC(C)(O)c3ccccn3)ncc21` (stereo not drawn) [Compound 59], the results for the 50% inhibitory concentration (IC50) in test [1], in test [2] and in test [3] were 0.071 µM, 0.23 µM and 5 µM, respectively. For the same compound, the values for the EC50 in test [4], in test [5] and in test [6] were over 10 µM, over 10 µM and 17 µM, respectively.
For the compound `CC(C)(O)C#Cc1cc2c(-c3nc(N)ncc3C#N)cn(CC(C)(C)O)c2cn1` [Compound 60], the IC50 in test [1] worked out at 0.0084 µM; in test [2], 0.011 µM; in test [3] it was 0.019 µM. The figures for the 50% effective concentration (EC50) in test [4], in test [5] and in test [6] were 14 µM, 0.15 µM and 0.17 µM, respectively.
For `CC(C)(O)C#Cc1cc2c(-c3nc(N)ncc3C(F)(F)F)c[nH]c2cn1` [Compound 61], the results for the IC50 in test [1], in test [2] and in test [3] were 0.0038 µM, 0.005 µM and 0.023 µM, respectively. Further, the EC50 amounted to 4.6 µM in test [4], 0.34 µM in test [5] and 0.26 µM in test [6].
As to `CC(C)(O)C#Cc1cc2c(-c3nc(N)ncc3F)cn(CC(C)(C)O)c2cn1` [Compound 64], the IC50 is 0.0052 µM in test [1], 0.029 µM in test [2] and 0.02 µM in test [3]. Also, the EC50 in test [4] worked out at 2 µM; in test [5] it was 0.051 µM; in test [6], 0.081 µM.
Take `CC(C)(O)C#Cc1cc2c(-c3ccnc(N)n3)cn(C3COC3)c2cn1` [Compound 65]: the IC50 amounted to 0.015 µM in test [1], 0.054 µM in test [2] and 0.14 µM in test [3]. The half-maximal effective concentration (EC50) in test [4] turned out to be 7 µM; in test [5] it was 0.4 µM; in test [6], 0.47 µM.
As to `CC(C)(O)C#Cc1cc2c(-c3ccnc(N)n3)cn(C(C)(C)CO)c2cn1` [Compound 66], the IC50 turned out to be 0.0058 µM in test [1], 0.052 µM in test [2] and 0.24 µM in test [3]. In addition, the EC50 in test [4] came to 7.6 µM; in test [5], 0.27 µM; in test [6], 0.25 µM.
As to `CC(C)(O)C#Cc1cc2c(-c3ccnc(N)n3)cn(CCS(C)(=O)=O)c2cn1` [Compound 67], the values for the IC50 in test [1], in test [2] and in test [3] were 0.057 µM, 0.03 µM and 0.88 µM, respectively. The EC50 in test [4] is over 10 µM; in test [5], 2.4 µM; in test [6], 2.4 µM.
As for `CNc1nccc(-c2cn(CC(C)(C)O)c3cnc(C#CC(C)(C)O)cc23)n1` [Compound 68], the IC50 in test [1] turned out to be 0.13 µM; in test [2], 0.047 µM; in test [3], 0.36 µM. Also, the EC50 in test [4] came to 16 µM; in test [5] it was 0.96 µM; in test [6], 1.5 µM.
Consider `COCCNC(=O)c1c(-c2ccnc(N)n2)c2cc(C#CC(C)(C)O)ncc2n1C` [Compound 69], for which the IC50 in test [1] is 0.25 µM; in test [2] it was 0.089 µM; in test [3] it was 0.6 µM. The EC50 in test [4] came to 16 µM; in test [5], 0.87 µM; in test [6], 1.8 µM.
